Results as given in ChEMBL document CHEMBL1124477, “Regional differences in the binding of selective muscarinic receptor antagonists in rat brain: comparison with minimum-energy conformations” (J Med Chem, 1989).

How the values were obtained:
[1] = target: Muscarinic acetylcholine receptor
[2] = target: Muscarinic acetylcholine receptor; remark: listed apart in the source
[3] = target: Muscarinic acetylcholine receptor; remark: listed apart in the source
[4] = target: Muscarinic acetylcholine receptor; remark: listed apart in the source
[5] = target: Muscarinic acetylcholine receptor; remark: listed apart in the source
[6] = target: Muscarinic acetylcholine receptor; remark: listed apart in the source
[7] = target: Muscarinic acetylcholine receptor; remark: listed apart in the source
[8] = target: Muscarinic acetylcholine receptor; remark: listed apart in the source
[9] = target: Muscarinic acetylcholine receptor; remark: listed apart in the source
[10] = target: Muscarinic acetylcholine receptor; remark: listed apart in the source
[11] = target: Muscarinic acetylcholine receptor; remark: listed apart in the source
[12] = target: Muscarinic acetylcholine receptor; remark: listed apart in the source
[13] = target: Muscarinic acetylcholine receptor; remark: listed apart in the source
[14] = target: Muscarinic acetylcholine receptor; remark: listed apart in the source
[15] = target: Muscarinic acetylcholine receptor; type: tissue-based, Rattus norvegicus, Hippocampus
[16] = target: Muscarinic acetylcholine receptor; type: tissue-based, Rattus norvegicus, Hippocampus; remark: listed apart in the source
[17] = target: Muscarinic acetylcholine receptor; remark: listed apart in the source
[18] = target: Muscarinic acetylcholine receptor; remark: listed apart in the source
[19] = target: Muscarinic acetylcholine receptor; remark: listed apart in the source
[20] = target: Muscarinic acetylcholine receptor; remark: listed apart in the source
[21] = target: Muscarinic acetylcholine receptor; remark: listed apart in the source
[22] = target: Muscarinic acetylcholine receptor; remark: listed apart in the source
[23] = target: Muscarinic acetylcholine receptor; remark: listed apart in the source
[24] = target: Muscarinic acetylcholine receptor; remark: listed apart in the source
[25] = target: Muscarinic acetylcholine receptor; design: species or system Rattus norvegicus
[26] = target: Muscarinic acetylcholine receptor; remark: listed apart in the source
[27] = target: Muscarinic acetylcholine receptor; remark: listed apart in the source
[28] = target: Muscarinic acetylcholine receptor; type: tissue-based, Rattus norvegicus, Hippocampus; remark: listed apart in the source
[29] = target: Muscarinic acetylcholine receptor; remark: listed apart in the source
[30] = target: Muscarinic acetylcholine receptor; remark: listed apart in the source
[31] = target: Muscarinic acetylcholine receptor; remark: listed apart in the source
[32] = target: Muscarinic acetylcholine receptor; remark: listed apart in the source
[33] = target: Muscarinic acetylcholine receptor; remark: listed apart in the source
[34] = target: Muscarinic acetylcholine receptor; remark: listed apart in the source
[35] = target: Muscarinic acetylcholine receptor; remark: listed apart in the source
[36] = target: Muscarinic acetylcholine receptor; remark: listed apart in the source
[37] = target: Muscarinic acetylcholine receptor; remark: listed apart in the source
[38] = target: Muscarinic acetylcholine receptor; remark: listed apart in the source
[39] = target: Muscarinic acetylcholine receptor; remark: listed apart in the source
[40] = target: Muscarinic acetylcholine receptor; remark: listed apart in the source
[41] = target: Muscarinic acetylcholine receptor; remark: listed apart in the source
[42] = target: Muscarinic acetylcholine receptor; design: species or system Rattus norvegicus; remark: listed apart in the source
[43] = target: Muscarinic acetylcholine receptor; remark: listed apart in the source
[44] = target: Muscarinic acetylcholine receptor; remark: listed apart in the source
[45] = target: Muscarinic acetylcholine receptor; remark: listed apart in the source
[46] = target: Muscarinic acetylcholine receptor; remark: listed apart in the source
[47] = target: Muscarinic acetylcholine receptor; remark: listed apart in the source
[48] = target: Muscarinic acetylcholine receptor; remark: listed apart in the source
[49] = target: Muscarinic acetylcholine receptor; remark: listed apart in the source
[50] = target: Muscarinic acetylcholine receptor; remark: listed apart in the source
[51] = target: Muscarinic acetylcholine receptor; remark: listed apart in the source
[52] = target: Muscarinic acetylcholine receptor; remark: listed apart in the source
[53] = target: Muscarinic acetylcholine receptor; remark: listed apart in the source
[54] = target: Muscarinic acetylcholine receptor; remark: listed apart in the source
[55] = target: Muscarinic acetylcholine receptor; remark: listed apart in the source
[56] = target: Muscarinic acetylcholine receptor; remark: listed apart in the source
[57] = target: Muscarinic acetylcholine receptor; remark: listed apart in the source
[58] = target: Muscarinic acetylcholine receptor; remark: listed apart in the source
[59] = target: Muscarinic acetylcholine receptor; remark: listed apart in the source
[60] = target: Muscarinic acetylcholine receptor; remark: listed apart in the source

CCN(CC)CC1CCCCN1CC(=O)N1c2ccccc2C(=O)Nc2cccnc21 (stereo not given) [OTENZEPAD]
IC50 [1]: 2.9 µM
IC50 [2]: 2 µM
IC50 [3]: 0.84 µM
IC50 [4]: 1.5 µM
IC50 [5]: 4.9 µM
IC50 [6]: 5.8 µM
IC50 [7]: 0.3 µM
IC50 [8]: 1.8 µM
IC50 [9]: 14 µM
IC50 [10]: 0.69 µM
IC50 [11]: 1.4 µM
IC50 [12]: 7 µM
IC50 [13]: 1.9 µM
IC50 [14]: 0.31 µM
IC50 [15]: 6.1 µM
IC50 [16]: 3.2 µM
IC50 [17]: 0.49 µM
IC50 [18]: 0.49 µM
IC50 [19]: 0.57 µM
IC50 [20]: 0.25 µM
IC50 [21]: 2.1 µM
IC50 [22]: 3.2 µM
IC50 [23]: 6.5 µM
IC50 [24]: 0.86 µM
IC50 [25]: 4 µM
IC50 [26]: 0.68 µM
IC50 [27]: 1 µM
IC50 [28]: 6.3 µM
IC50 [29]: 0.72 µM
IC50 [30]: 1.4 µM
IC50 [31]: 1.3 µM
IC50 [32]: 2.1 µM
IC50 [33]: 0.58 µM
IC50 [34]: 0.79 µM
IC50 [35]: 0.32 µM
IC50 [36]: 1.7 µM
IC50 [37]: 0.31 µM
IC50 [38]: 1.2 µM
IC50 [39]: 4.3 µM
IC50 [40]: 0.25 µM
IC50 [41]: 0.24 µM
IC50 [42]: 1.6 µM
IC50 [43]: 0.61 µM
IC50 [44]: 4.3 µM
IC50 [45]: 0.43 µM
IC50 [46]: 9.8 µM
IC50 [47]: 0.46 µM
IC50 [48]: 0.96 µM
IC50 [49]: 0.31 µM
IC50 [50]: 2.3 µM
IC50 [51]: 0.42 µM
IC50 [52]: 0.42 µM
IC50 [53]: 0.23 µM
IC50 [54]: 0.62 µM
IC50 [55]: 0.26 µM
IC50 [56]: 1 µM
IC50 [57]: 1.3 µM
IC50 [58]: 0.26 µM
IC50 [59]: 7.3 µM
IC50 [60]: 0.58 µM
